Patent USRE38460E1 (priority 1994, dated 2004)
Like-named read-outs stand apart in the source and are kept apart here.

Legend:
BuChE = molecular target: T1, BuChE (Rattus norvegicus, UniProt Q9JKC1); assay: In-vitro anticholinesterase effect (Table 6), BuChE; type: biochemical; settings: read-out: inhibition activity BuChE at 10(μM)
T1 construct: from tissue; host or cells: rat serum
Protocol: (§1) In the present invention a calorimetric method reported by Ellman was used to determine the effect of inhibition of the pharmaceutical on enzyme activity. The total volume of the solution of the enzyme activity reaction was 4 ml, which contained 0.3 mmol/L of acetylcholin iodide (acetylcholinesterase substrate), or 0.4 mmol/L of butyrylcholin iodide (butyrylcholinesterase substrate), 1 ml of the buffer solution of 25 mmol/L of phosphate of pH 7.4, and water to make up to 4 ml (including the amount of the enzyme solution and the testing reagent added afterwards). After the solution was kept at 37° C. for 5 minutes, 0.1-0.2 ml of enzyme solution (red cell membrane or serum of rat) was added, or 0.1-0.3 ml of the testing reagent was added at the same time. The solution was kept at the same temperature for another 8 minutes. Then 1 ml of 3% of sodium lauryl sulphate was added to terminate the reaction. Finally 1 ml of 0.2% 5,5-dithio-2,2′-nitro-benzoic acid solution was added for developing.

acetylcholinesterase = molecular target: T2, acetylcholinesterase (Rattus norvegicus, UniProt P37136); assay: Study on kinetics of enzyme; type: biochemical
T2 sequence (P37136 32-614): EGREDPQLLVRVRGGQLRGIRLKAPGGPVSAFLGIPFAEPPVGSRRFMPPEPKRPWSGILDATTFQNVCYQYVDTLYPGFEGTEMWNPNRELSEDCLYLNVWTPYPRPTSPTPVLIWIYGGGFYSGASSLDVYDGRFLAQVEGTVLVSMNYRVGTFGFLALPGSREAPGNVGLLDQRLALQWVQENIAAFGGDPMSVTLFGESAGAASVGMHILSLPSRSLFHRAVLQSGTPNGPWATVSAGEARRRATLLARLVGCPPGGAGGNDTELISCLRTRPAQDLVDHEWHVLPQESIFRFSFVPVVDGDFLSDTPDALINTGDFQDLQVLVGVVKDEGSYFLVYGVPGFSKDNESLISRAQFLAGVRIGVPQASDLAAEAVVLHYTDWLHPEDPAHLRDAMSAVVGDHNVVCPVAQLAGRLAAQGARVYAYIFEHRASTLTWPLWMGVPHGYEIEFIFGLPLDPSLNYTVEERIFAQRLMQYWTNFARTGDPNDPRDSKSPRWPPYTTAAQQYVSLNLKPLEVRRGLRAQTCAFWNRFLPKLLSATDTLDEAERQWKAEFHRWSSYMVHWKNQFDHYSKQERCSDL
Protocol: In the present invention a calorimetric method reported by Ellman was used to determine the effect of inhibition of the pharmaceutical on enzyme activity. The total volume of the solution of the enzyme activity reaction was 4 ml, which contained 0.3 mmol/L of acetylcholin iodide (acetylcholinesterase substrate), or 0.4 mmol/L of butyrylcholin iodide (butyrylcholinesterase substrate), 1 ml of the buffer solution of 25 mmol/L of phosphate of pH 7.4, and water to make up to 4 ml (including the amount of the enzyme solution and the testing reagent added afterwards). After the solution was kept at 37° C. for 5 minutes, 0.1-0.2 ml of enzyme solution (red cell membrane or serum of rat) was added, or 0.1-0.3 ml of the testing reagent was added at the same time. The solution was kept at the same temperature for another 8 minutes. Then 1 ml of 3% of sodium lauryl sulphate was added to terminate the reaction. Finally 1 ml of 0.2% 5,5-dithio-2,2′-nitro-benzoic acid solution was added for developing. “721” spectrophotometer was used to determine the density of light at 440 nm. A solution without addition of the pharmaceutical to inhibit the enzyme activity was used as a control (100%).

AChE = molecular target: T3, AChE (Rattus norvegicus, UniProt P37136); assay: biochemical; settings: Table 6
T3 construct: 0.1-0.2 ml of enzyme solution (red cell membrane or serum of rat) was added; from tissue; host or cells: rat tissue
T3 sequence (P37136 32-614): T2 sequence (P37136 32-614)
Protocol: as §1

[1] = molecular target: T4, acetylcholinesterase (AChE) (Rattus norvegicus, UniProt P37136); assay: biochemical; type: biochemical; settings: Table 2; for IC50: AChE taken from homogenate of rat's cortex; for IC50 ratio BuChE/AChE: cortex AChE, serum BuChE
T4 construct: from tissue; host or cells: homogenate of rat cortex
T4 sequence (P37136 32-614): T2 sequence (P37136 32-614)
Protocol: as §1
(§2) AChE taken from homogenate of rat's cortex. BuChE taken from rat's serum.

[2] = molecular target: T5, acetylcholinesterase (AChE) (Rattus norvegicus, UniProt P37136); assay: biochemical; type: biochemical; settings: for IC50 / IC50 ratio BuChE/AChE: Table 1; for IC50: AChE taken from rat's red cell membrane; for IC50 ratio BuChE/AChE: red cell membrane AChE, serum BuChE; for inhibition effect on acetylcholinesterase (in words) / inhibition effect on acetylcholinesterase compared with huperzine A / inhibition effect on acetylcholinesterase compared with physostigmine and galanthamine: see Tables 1, 2 and 6
T5 construct: from tissue; host or cells: rat red cell membrane
Protocol: as §1
(§3) AChE taken from rat's red cell membrane. BuChE taken from rat's serum.
T5 sequence (P37136 other isoform, or with tags, fused parts or gaps): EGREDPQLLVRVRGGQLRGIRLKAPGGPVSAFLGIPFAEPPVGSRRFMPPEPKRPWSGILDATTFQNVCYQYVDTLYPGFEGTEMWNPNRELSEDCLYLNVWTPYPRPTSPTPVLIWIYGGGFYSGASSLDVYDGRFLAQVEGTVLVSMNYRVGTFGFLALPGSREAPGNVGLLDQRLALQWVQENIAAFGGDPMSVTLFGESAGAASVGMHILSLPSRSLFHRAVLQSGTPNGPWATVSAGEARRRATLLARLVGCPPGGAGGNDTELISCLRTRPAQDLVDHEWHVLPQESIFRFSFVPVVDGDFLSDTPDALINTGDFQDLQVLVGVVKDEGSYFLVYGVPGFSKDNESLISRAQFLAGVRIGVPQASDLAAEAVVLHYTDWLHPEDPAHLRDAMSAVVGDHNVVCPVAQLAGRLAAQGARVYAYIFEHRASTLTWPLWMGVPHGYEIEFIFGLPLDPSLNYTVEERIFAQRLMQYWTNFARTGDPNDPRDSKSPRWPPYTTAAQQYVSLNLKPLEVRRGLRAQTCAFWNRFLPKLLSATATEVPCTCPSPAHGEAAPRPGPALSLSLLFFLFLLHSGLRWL

mice = assay: Critical toxicity on mice (Bliss method); type: in vivo; settings: for LD50 relative to that of the compound of formula (I): mice; for critical toxicity compared with compound (I): mouse, in vivo
Protocol: (§4) Test of each pharmaceutical was carried out using 4-5 dosage group.
(§5) Mortality within 7 days was observed.

[3] = Critical toxicity on mice (Bliss method); type: in vivo; settings: mouse, in vivo, po, mice, p.o., Bliss method, mortality within 7 days
Protocol: as §4, §5

[4] = tested on: memory impairment caused by scopolamine; assay: 8-arm maze spatial distinction operation of rat, memory impairment caused by scopolamine; type: in vivo; settings: for effect on improving memory (in words): 8-arm maze spatial distinction operation of rat, compared with compound of formula (I); for No. of mistakes in operation before reaching the standard, reference memory (X + SEM) / No. of mistakes in operation before reaching the standard, working memory (X + SEM): rats, 8-arm maze
[5] = molecular target: T6, butyrylcholinesterase (BuChE) (Rattus norvegicus, UniProt Q9JKC1); assay: In-vitro anticholinesterase effect, colorimetric method (Ellman), BuChE from rat's serum; type: biochemical; settings: for inhibition effect on butyrylcholinesterase (pseudo enzyme) compared with huperzine A: see Tables 1, 2 and 6
T6 construct: from tissue; host or cells: rat serum
Protocol: as §1, §3, §2

[6] = tested on: memory impairment caused by scopolamine; assay: Mouse passive escape operation (platform jumping method), memory impairment caused by scopolamine; type: in vivo, mice; settings: for delitescence of get-down (sec ± SEM): mice, tested after 24 hours; for effect on improving memory (in words): mouse passive escape operation, compared with compound of formula (I)
[7] = first of two columns headed LD50, read-out: LD50 (first column) (95% confidence limit)
[8] = second of two columns headed LD50, read-out: LD50 (second column) (95% confidence limit)
[9] = scopolamine + derivative 0.124 + 0.2 mg/kg ip + po
[10] = scopolamine + derivative 2 + 0.2 mg/kg ip + po
[11] = scopolamine + derivative 2 + 0.4 mg/kg ip + po
[12] = scopolamine + derivative 0.2 ± 0.1 mg/kg ip + po
[13] = scopolamine + derivative 0.2 ± 0.3 mg/kg ip + po

T6 sequence (Q9JKC1 24-597): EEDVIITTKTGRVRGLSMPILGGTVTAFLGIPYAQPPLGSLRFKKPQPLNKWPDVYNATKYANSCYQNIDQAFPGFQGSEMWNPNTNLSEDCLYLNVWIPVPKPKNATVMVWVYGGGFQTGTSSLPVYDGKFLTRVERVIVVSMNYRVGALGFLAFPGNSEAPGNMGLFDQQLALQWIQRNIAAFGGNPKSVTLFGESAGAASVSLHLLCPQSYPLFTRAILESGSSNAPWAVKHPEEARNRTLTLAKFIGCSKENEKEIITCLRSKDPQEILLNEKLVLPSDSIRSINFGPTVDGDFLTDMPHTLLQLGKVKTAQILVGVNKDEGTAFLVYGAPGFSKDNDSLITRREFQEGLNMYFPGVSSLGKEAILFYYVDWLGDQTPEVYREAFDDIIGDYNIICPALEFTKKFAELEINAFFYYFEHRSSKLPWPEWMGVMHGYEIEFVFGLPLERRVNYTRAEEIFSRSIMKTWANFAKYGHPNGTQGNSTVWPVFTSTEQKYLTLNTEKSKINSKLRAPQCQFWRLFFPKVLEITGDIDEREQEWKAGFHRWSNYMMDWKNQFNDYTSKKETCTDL
T1 sequence (Q9JKC1 24-597): as above

SMILES: CC=C1C2C=C(C)CC1(N=Cc1ccc(OC)c(O)c1)c1ccc(=O)[nH]c1C2 (stereo not drawn) [derivative No. 18]
- inhibition at 10 µM (BuChE): 0%
- combination with acetylcholinesterase (reversibility) (acetylcholinesterase): reversible
- BuChE/AChE (AChE): >500
- inhibition at 1 µM (AChE; 1 μM): 90.2%
- IC50 (AChE; read-out: inhibition activity AChE IC50): 84 nM
- IC50 [1]: 151 nM
- IC50 ratio BuChE/AChE [1]: 708.2
- inhibitor of acetylcholinesterase (summary in words) [2]: highly effective selective inhibitors
- IC50 [2]: 151 nM
- IC50 ratio BuChE/AChE [2]: 709.9
- inhibition effect on acetylcholinesterase (in words) [2]: remarkable inhibition effect
- inhibition effect on acetylcholinesterase compared with huperzine A [2]: slightly weaker
- inhibition effect on acetylcholinesterase compared with physostigmine and galanthamine [2]: apparently stronger
- LD50 relative to that of the compound of formula (I) (mice): ⅓
- critical toxicity compared with compound (I) (mice): lower critical toxicity
- LD50 [3, 7]: 9.6 mg/kg
- LD50 [3, 8]: 14.4 mg/kg
- effect on improving memory (in words) [4]: very strong effect
- No. of mistakes in operation before reaching the standard, reference memory (X + SEM) [4, 9]: 0.67
- No. of mistakes in operation before reaching the standard, working memory (X + SEM) [4, 9]: 0.33
- IC50 [5]: 107000 nM
- inhibition effect on butyrylcholinesterase (pseudo enzyme) compared with huperzine A [5]: weaker inhibition effect
- delitescence of get-down (sec ± SEM) [6, 10]: 67.7 ± 11.7 s
- delitescence of get-down (sec ± SEM) [6, 11]: 48.7 ± 6.9 s
- delitescence of get-down (sec ± SEM) ([6]; scopolamine + derivative 3 + 0.3 mg/kg ip + po): 64.0 ± 9.8 s
- effect on improving memory (in words) [6]: very strong effect

SMILES: CC=C1C2C=C(C)CC1(N=Cc1c(O)cc(OC)cc1OC)c1ccc(=O)[nH]c1C2 (stereo not drawn) [derivative No. 19]
- combination with acetylcholinesterase (reversibility) (acetylcholinesterase): reversible
- IC50 [1]: 144 nM
- IC50 ratio BuChE/AChE [1]: 724.6
- inhibitor of acetylcholinesterase (summary in words) [2]: highly effective selective inhibitors
- IC50 [2]: 145 nM
- IC50 ratio BuChE/AChE [2]: 722.1
- inhibition effect on acetylcholinesterase (in words) [2]: remarkable inhibition effect
- inhibition effect on acetylcholinesterase compared with huperzine A [2]: slightly weaker
- inhibition effect on acetylcholinesterase compared with physostigmine and galanthamine [2]: apparently stronger
- LD50 relative to that of the compound of formula (I) (mice): ⅓
- critical toxicity compared with compound (I) (mice): lower critical toxicity
- LD50 [3, 7]: 11.1 mg/kg
- LD50 [3, 8]: 14.1 mg/kg
- effect on improving memory (in words) [4]: very strong effect
- No. of mistakes in operation before reaching the standard, reference memory (X + SEM) [4, 12]: 1.33 ± 0.21
- No. of mistakes in operation before reaching the standard, working memory (X + SEM) [4, 12]: 1.33
- No. of mistakes in operation before reaching the standard, reference memory (X + SEM) [4, 13]: 0.33
- No. of mistakes in operation before reaching the standard, working memory (X + SEM) [4, 13]: 0.17
- IC50 [5]: 105000 nM
- inhibition effect on butyrylcholinesterase (pseudo enzyme) compared with huperzine A [5]: weaker inhibition effect
- delitescence of get-down (sec ± SEM) ([6]; scopolamine + derivative 2 + 0.1 mg/kg ip + po): 48.9 ± 12.6 s
- delitescence of get-down (sec ± SEM) [6, 10]: 71.6 ± 14.5 s
- delitescence of get-down (sec ± SEM) ([6]; scopolamine + derivative 2 + 0.3 mg/kg ip + po): 99.8 ± 16.4 s
- delitescence of get-down (sec ± SEM) [6, 11]: 92.2 ± 15.5 s
- effect on improving memory (in words) [6]: very strong effect
